In PubChem BioAssay AID651973 (The Scripps Research Institute Molecular Screening Center, 2013):
The source made the active and inactive calls. No rule for the calls is given here.

Each compound was assayed on Cell-based VP16 transactivation luciferase reporter, luminescence (assay: VP16 transactivation reporter inhibitors, dose response, counter-screen for LRH-1 inverse agonist project, cell-based, luminescence (AID 651973)).

SMILES | IC50
CCCc1cc(=O)oc2c(C)c(OCC(=O)NCCN3CCOCC3)ccc12 | > 35.9 µM (inactive)
CCCc1cc(=O)oc2c(C)c(OCC(=O)NC3CC(C)(C)NC(C)(C)C3)ccc12 | > 35.9 µM (inactive)
Cc1ccc(NC(=O)CSc2sc3c(O)cc(=O)[nH]c3c2C#N)c(F)c1 | > 35.9 µM (inactive)
O=C(CSc1nnc(CNC(=O)c2c(F)cccc2F)o1)Nc1ccc2c(c1)OCCO2 | > 35.9 µM (inactive)
NC(=O)C1CCN(C(=O)COc2ccc3c4c(c(=O)oc3c2)CCC4)CC1 | > 35.9 µM (inactive)
Cc1no[n+]([O-])c1COc1ccc(/C=C2\NC(=S)NC2=O)cc1 | > 35.9 µM (inactive)
O=C(CN1C(=O)NC2(CCCCC2)C1=O)NCCc1c[nH]c2ccccc12 | > 35.9 µM (inactive)
Cc1cc(=O)oc2c(C)c(OCC(=O)NC3CC(C)(C)NC(C)(C)C3)ccc12 | > 35.9 µM (inactive)
COc1cc(C(=O)Nc2ccccc2C2COC(=O)C2=N)cc(OC)c1OC (configuration not stated) | > 35.9 µM (inactive)
COCCNc1ccc([N+](=O)[O-])cc1C(=O)NC1CCCc2ccccc21 (configuration not stated) | > 35.9 µM (inactive)
COc1ccc(OCCNC(=O)C2(C)CCN2Cc2ccc(SC)cc2)cc1 (configuration not stated) | 28.5 µM (inactive)
Cc1ccc(C)c(NC(=O)CSc2nnc(-c3n[nH]c4ccccc34)o2)c1 | > 35.9 µM (inactive)
O=C(OCC(=O)N1CCN(C(=O)COC(=O)c2ccc(O)cc2O)CC1)c1ccc(O)cc1O | > 35.9 µM (inactive)
Cc1cc(OCC(=O)NCc2cccnc2)c2c(C)c(C)c(=O)oc2c1 | > 35.9 µM (inactive)
COc1ccc(NC(=O)CSc2nnc3ccc(-c4cccnc4)nn23)cc1OC | > 35.9 µM (inactive)
CC(=O)Nc1cc(-c2cccc(F)c2)cn2c(-c3ccc(S(C)(=O)=O)cc3)cnc12 | 18.7 µM (inactive)
O=C(COc1ccc(S(=O)(=O)N2CCCC2)cc1Cl)Nc1ccc2c(c1)OCO2 | > 35.9 µM (inactive)
Cc1cc(OCC(=O)Nc2nccs2)c2c(C)cc(=O)oc2c1 | > 35.9 µM (inactive)
Cc1ccccc1C(=O)NC1CCN(CC(=O)Nc2ccc(Br)cc2)CC1 | > 35.9 µM (inactive)
COc1cccc(NC(=O)c2oc3ccccc3c2NC(=O)C2CC2)c1 | > 35.9 µM (inactive)
O=C(Nc1ccc(Cc2ccncc2)cc1)c1cccc([N+](=O)[O-])c1 | > 35.9 µM (inactive)
CC(=O)Nc1ccc(NC(=O)CSc2nnc(NC(=O)C3CC3)s2)cc1 | > 35.9 µM (inactive)
O=C(Nc1ccc(S(=O)(=O)N2CCOCC2)cc1)c1ccc([N+](=O)[O-])o1 | 25.5 µM (inactive)

SMILES | IC50
O=C(NCc1cccnc1)c1cccc2c1C(=O)N(C1CCCCC1)C2 | > 35.9 µM (inactive)
Cc1nn(CC(=O)Nc2ccc3c(c2)OCCO3)c(C)c1[N+](=O)[O-] | > 35.9 µM (inactive)
COc1ccc(NS(=O)(=O)c2ccc(OCC(=O)N3CCN(C)CC3)cc2)cc1Cl | > 35.9 µM (inactive)
CC(C)Oc1cccc(-c2cc(C(=O)NN3CCOCC3)c3ccccc3n2)c1 | > 35.9 µM (inactive)
CCOc1ccc(NC(=O)COC(=O)C2CCC(=O)N2)c([N+](=O)[O-])c1 (configuration not stated) | > 35.8 µM (inactive)
CCc1cc(=O)oc2c(C)c(OCC(=O)NCCN3CCOCC3)ccc12 | > 35.9 µM (inactive)
COc1ccc(CCNC(=O)CN2C(=O)NC3(CCCCC3)C2=O)cc1 | > 35.9 µM (inactive)
O=C(COc1ccc2c3c(c(=O)oc2c1)CCCC3)NCc1ccccn1 | > 35.9 µM (inactive)
O=C(Nc1nc2c(Cl)cccc2s1)c1ccc([N+](=O)[O-])o1 | > 35.9 µM (inactive)
CC(O)(c1ccc(F)c(F)c1)c1nc(-c2ccc(S(C)(=O)=O)cc2)cs1 (configuration not stated) | 34.7 µM (inactive)
CCCc1nnc(SCC(=O)Nc2ccc(C(=O)OCC)cc2)o1 | > 35.9 µM (inactive)
O=C(CCl)NCCCN(C(=O)C(Cl)Cl)c1ccc([N+](=O)[O-])cc1 | 28.4 µM (inactive)
Cc1cccc(CN2C(=O)CSc3ccc(C(=O)NC4CC4)cc32)c1 | 26.3 µM (inactive)
COC(=O)c1ccc(NC(=O)CSc2ccc(-c3ccccn3)nn2)cc1 | > 35.9 µM (inactive)
Cc1cc(NC(=O)c2ccc([N+](=O)[O-])o2)ccc1NC(=O)c1ccco1 | > 35.9 µM (inactive)
CC(C)(Oc1ccc(Cl)cc1)C(=O)OCC(=O)NCCc1ccccc1 | > 35.9 µM (inactive)
O=C(Nc1ccc(Cc2ccncc2)cc1)c1ccc([N+](=O)[O-])o1 | > 35.9 µM (inactive)
CCc1cc(=O)oc2c(C)c(OCC(=O)NCCCN3CCOCC3)ccc12 | > 35.9 µM (inactive)
O=C(Nc1ccc(S(=O)(=O)N2CCOCC2)cc1)c1cccc([N+](=O)[O-])c1 | > 35.9 µM (inactive)
CC(O)(c1cccc(F)c1)c1nc(-c2ccc(S(C)(=O)=O)cc2)cs1 (configuration not stated) | 16.2 µM (inactive)
COC(=O)c1ccc(N2CCCCC2)c(NC(=O)c2ccco2)c1 | 13.3 µM (inactive)
CCOc1ccc(OCCC(=O)OCC(=O)Nc2ccc3c(c2)OCCO3)cc1 | > 35.9 µM (inactive)
COc1ccc(-n2c(N)c(C(=O)NCc3cccnc3)sc2=S)cc1 | > 35.9 µM (inactive)

SMILES | IC50
C[C@H](CO)N1C[C@H](C)[C@H](CN(C)Cc2ccncc2)Oc2cc(-c3ccccc3F)ccc2S1(=O)=O | 14.6 µM (inactive)
CCc1c(C)nc(SCC(=O)Nc2ccc3c(c2)OCCO3)[nH]c1=O | > 35.9 µM (inactive)
Cc1onc(NC(=O)c2ccc([N+](=O)[O-])o2)c1Br | > 35.9 µM (inactive)
CCCc1cc(=O)oc2cc(OCC(=O)NCCc3ccc(S(N)(=O)=O)cc3)ccc12 | > 35.9 µM (inactive)
COc1ccc(CCNC(=O)COC(=O)Cc2ccccc2[N+](=O)[O-])cc1 | > 35.9 µM (inactive)
Cc1ccc(-c2csc(NC(=O)c3ccc([N+](=O)[O-])o3)n2)cc1 | > 35.9 µM (inactive)
Cc1onc(-c2c(F)cccc2Cl)c1C(=O)O/N=C(\N)c1ccc([N+](=O)[O-])o1 | > 35.9 µM (inactive)
CCOc1ccc(NC(=O)COC(=O)COc2cccc3c2OC(C)(C)C3)cc1 | > 35.9 µM (inactive)
Cc1ccccc1OCC(=O)N/N=C/c1ccc([N+](=O)[O-])o1 | 29.8 µM (inactive)
Cc1ccc(NC(=O)CN2C(=O)NC(C)(CC(C)C)C2=O)c(Br)c1 (configuration not stated) | > 35.9 µM (inactive)
Cc1onc(-c2ccccc2Cl)c1C(=O)O/N=C(\N)c1ccc([N+](=O)[O-])o1 | > 35.9 µM (inactive)
CCOc1ccc(NC(=O)CN2CCN(CC(=O)Nc3ccc(OC)cc3)CC2)cc1 | > 35.9 µM (inactive)
COc1cccc(C(=O)COc2cccc(NC(=O)c3cccc([N+](=O)[O-])c3)c2)c1 | 8.46 µM
Cc1ccn2c(=O)nc(SCC(=O)Nc3ccc4c(c3)OCCO4)nc2c1 | > 35.9 µM (inactive)
Cc1cc(C)c2nc(NC(=O)c3ccc([N+](=O)[O-])o3)sc2c1 | > 35.9 µM (inactive)
Cc1ccc(NC(=O)CSc2nnc([C@@H]3CCCN3C(=O)OC(C)(C)C)o2)c(C)c1 | > 35.9 µM (inactive)
O=C(COC(=O)CCN1C(=O)C2CC=CCC2C1=O)NCCc1ccc(F)cc1 (configuration not stated) | > 35.9 µM (inactive)
O=[N+]([O-])c1cc(F)c(N2CCCCCC2)cc1N1CCNCC1 | 19.3 µM (inactive)
COc1cc(OC)cc(-c2oc3cccnc3c2C#CCCO)c1 | > 35.9 µM (inactive)
CCOC(=O)c1cc2sccc2n1CC(=O)Nc1ccc2c(c1)OCCO2 | > 35.9 µM (inactive)
O=C(COC(=O)c1ccc(Br)cc1)Nc1ccccc1Br | > 35.9 µM (inactive)
O=C(CN1C(=O)NC2(CCCC2)C1=O)NCCc1ccc(F)cc1 | > 35.9 µM (inactive)
CC1CC(C)CN(c2cc(N(C)CCO)c([N+](=O)[O-])c3nonc23)C1 (configuration not stated) | > 35.9 µM (inactive)

SMILES | IC50
NC(=O)C1CCN(C(=O)COc2ccc3c4c(c(=O)oc3c2)CCCC4)CC1 | > 35.9 µM (inactive)
CCCc1cc(=O)oc2cc(C)cc(OCC(=O)NC3CC3)c12 | > 35.9 µM (inactive)
COC(=O)c1ccc(NC(=O)CN2CCN(c3ccc(Cl)cc3)CC2)cc1 | > 35.9 µM (inactive)
COc1ccc(CCNC(=O)COC(=O)C23CC4CC(CC(Br)(C4)C2)C3)cc1 | > 35.9 µM (inactive)
CC(=O)Nc1ccc(NC(=O)CSc2ccc(-c3ccc(-n4ccnc4)cc3)nn2)cc1 | > 35.9 µM (inactive)
CCOc1ccc(NC(=O)CSc2nnc(C(C)C)n2CC)cc1 | > 35.9 µM (inactive)
O=C(NC1CCCC(C(F)(F)F)C1)c1ccc([N+](=O)[O-])o1 (configuration not stated) | > 35.9 µM (inactive)
N#Cc1cc([N+](=O)[O-])ccc1NC(=O)COC(=O)C1CCC(=O)N1 (configuration not stated) | > 35.9 µM (inactive)
O=C(Cc1ccc(S(=O)(=O)N2CCCC2)s1)Nc1cccc([N+](=O)[O-])c1 | 14.1 µM (inactive)
COc1ccc(C2(C)NC(=O)N(CC(=O)NCCC3=CCCCC3)C2=O)cc1OC (configuration not stated) | > 35.9 µM (inactive)
CCOCC(=O)Nc1ccc(S(=O)(=O)NCCc2ccccc2)cc1 | > 35.9 µM (inactive)
Cc1onc(-c2ccccc2)c1C(=O)O/N=C(\N)c1ccc([N+](=O)[O-])o1 | > 35.9 µM (inactive)
Nc1ccc(C(=O)NN2C(=O)[C@H](Cl)C2c2ccc(Cl)cc2)cc1 (some centres not stated) | 9.87 µM
COc1cccc(-c2cnc3c(NC(C)=O)cc(-c4ccc(S(C)(=O)=O)cc4)cn23)c1 | > 35.9 µM (inactive)
CCC(C)(C)n1nnnc1CN1CCC(O)(c2cccc(C(F)(F)F)c2)CC1 | > 35.9 µM (inactive)
CCc1cc(=O)[nH]c(SCC(=O)Nc2ccc3c(c2)OCCO3)n1 | > 35.9 µM (inactive)
O=C(COC(=O)c1ccc(=O)n(Cc2ccccc2)n1)Nc1ccc2c(c1)OCCO2 | > 35.9 µM (inactive)
COc1ccc(S(=O)(=O)Nc2ccc3c(c2)n(C)c(=O)n3C)cc1F | > 35.9 µM (inactive)
COc1ccccc1NC(=O)CN1CCN(CC(=O)Nc2ccc3c(c2)OCCO3)CC1 | > 35.9 µM (inactive)
COc1ccccc1Oc1nnnn1-c1ccc(C(N)=O)cc1 | > 35.9 µM (inactive)
COc1ccc(NC(=O)CSc2nc3nc(C)cc(C)c3c(=O)[nH]2)cc1 | > 35.9 µM (inactive)
COc1ccc(CCNC(=O)CSc2nc3[nH]c(=O)cc(O)c3s2)cc1 | > 35.9 µM (inactive)
COCCn1c(C)cc(/C=C(\C#N)C(=O)OCC(=O)Nc2ccc(S(N)(=O)=O)cc2)c1C | > 35.9 µM (inactive)
